Columns and labels:
[1] = Pilot study of long term effects of D-tagatose in humans with type-2 diabetes (University of Maryland); assay type: in vivo; conditions: long term treatment; each of the subjects, both the patients (type-2 diabetes) and the controls
Description: U.S. Pat. No. 5,447,917 discloses and claims a method for treating diabetes by administering to a mammal an amount of D-tagatose effective to inhibit the rise in blood sugar associated with the consumption of sugar. A pilot study was conducted at the University of Maryland to investigate the long term effects of D-tagatose in humans with type-2 diabetes.

[2] = Example 1: tagatose given to a human patient with lowered HDL level; assay type: in vivo; conditions: 15 grams with each of three meals per day, after six months
Source text: A human patient is diagnosed as having a lowered HDL level than that found in a previous visit. The physician is concerned that this may forecast atherosclerosis, possibly leading to a heart attack, or to a stroke. The physician prescribes that the patient take 15 grams of tagatose with each of three meals per day. […] The physician is satisfied with the improvement and prescribes continued […] doses of tagatose per meal as a means of maintaining and improving the patient's cardiovascular health.

Row | SMILES | HDL-cholesterol levels [1] | patient's HDL level versus immediately before treatment [2]
1 | O=C(CO)[C@@H](O)[C@@H](O)[C@H](O)CO [D-tagatose] | increase in HDL-cholesterol levels | 
2 | O=C(CO)[C@@H](O)[C@@H](O)[C@H](O)CO [tagatose] |  | significantly higher

— patent publication US20020137725A1, “Use of tagatose in promoting cardiovascular health” (priority 2001, published 2002)
